Measured values from PubChem BioAssay AID2060490 (Molecular Pharmacology Branch, DTP, NCI, 2025).

Tested on: 885512-296-R-J2-PDC complex spheroid viability
Assay: Anticancer human tumor 885512-296-R-J2-PDC patient-derived breast carcinoma cell line growth inhibition [GQUAD]
Conditions: for IC50: curve of first compound; for viability, T/C: stronger effect = lower value
Description: DNA G-quadruplex Stabilizer Agents in Combinations in Complex Spheroids
A high-throughput screen of multi-cell type tumor spheroids was designed to identify active combinations of DNA G-quadruplex stabilizer agents and targeted small molecules. Complex spheroids include a stromal component modeled by human endothelial cells (HUVEC) and fibroblasts modeled by human mesenchymal stem cells (MSCs). The concentration ranges selected for each drug and investigational agent were based upon clinically achievable concentrations if the clinical Cmax of the agent was known.
Compounds. The drugs and investigational agents: pidnarulex (CX-5461; NSC782164), APTO-253 (NSC789042), BRACO-19 (NSC847499), peposertib (NSC802822), ceralasertib (NSC780249), elimusertib (NSC800525), camonsertib (NSC841442), AZD-1390 (NSC803789), olaparib (NSC753686), talazoparib (NSC767125), ART-558 (NSC835418), sotorasib (NSC818433), MRTX-1133 (NSC836407), SN-38 (NSC673596), topotecan (NSC609699), etoposide (NSC141540), doxorubicin (NSC123127), gemcitabine (NSC613327), 5-fluorouracil (NSC19893), paclitaxel (NSC125973), vemurafenib (NSC761431), panobinostat (NSC761190), R-306465 (JNJ-16241199; NSC773264), adavosertib (NSC754352), TP-3654 (NSC805149), carboplatin (NSC241240), KSQ-4279 (NSC840948), and staurosporine (NSC755774) were obtained from the National Cancer Institute (NCI) Developmental Therapeutics Program Chemical Repository (34). The FDA-approved anticancer drug set is available from the NCI Developmental Therapeutics Program. […] The stock solutions were prepared in dimethyl sulfoxide (DMSO, Sigma-Aldrich, St. Louis, MO, cat. D2650) at 800-fold the tested concentration and stored at -70 degrees C prior to their use. All drugs and investigational agents were tested over a range starting from a high concentration at or near the clinical Cmax and decreasing in half-log increments. If the clinical Cmax for an agent had not been determined, the highest concentration tested was 10 microM.
2.3 Cell Culture. All cells were maintained in an incubator at 37 degrees C and 5% CO2 with 95% humidity. The PDC lines were cultured according to standard operating procedures established by the NCI PDMR. All PDCs were thawed and cultured in Matrigel-coated flasks prepared with a working solution of 1X Ham's F-12 nutrient mix, without supplementation (Invitrogen, cat. 11765054), 100 U/mL penicillin-streptomycin (Invitrogen, cat. 15140122), and 2.5% Matrigel (Corning Inc., cat. 354248) for the first three passages. The 857933-349-R-J2-PDC line was cultured in 6C/Colon 1B media, which includes advanced DMEM/F-12 (Thermo Fisher Scientific, cat. 12634028), 10 mM HEPES (Thermo Fisher Scientific, cat. 15630080), 1X GlutaMAX supplement (Thermo Fisher Scientific, cat. 35050061), 0.1 mg/mL primocin (InvivoGen, cat. ant-pm-2), 10% defined fetal bovine serum, heat inactivated (HyClone Laboratories Inc., cat. SH30070.03HI), 50% L-WRN conditioned media (ATCC, cat. CRL-3276), 1.25 mM N-Acetyl-L-cysteine (Sigma-Aldrich, cat. A9165), 10 mM nicotinamide (Sigma-Aldrich, cat. N0636), 1X B-27 supplement (Thermo Fisher Scientific, cat. 17504044), 1X N-2 supplement (Thermo Fisher Scientific, cat. 17502048), 10 microM Y-27632 dihydrochloride (Tocris Bioscience, cat. 1254), and 50 ng/mL human EGF recombinant protein (Thermo Fisher Scientific, cat. PHG0311). The 485176-168-R4-J1-PDC line was cultured in Panc media, which includes all 6C/Colon 1B media components plus 100 ng/mL human FGF-10 (Thermo Fisher Scientific, cat. 100-26), 500 nM SB-431542 (Selleckchem, cat. S1067), and gastrin (Tocris, cat. 3006).
[…]

[1] = second compound 0.0316 µM, first compound 0.0316 µM
[2] = second compound 0.0316 µM, first compound 0.1 µM
[3] = second compound 0.0316 µM, first compound 0.316 µM
[4] = second compound 0.0316 µM, first compound 1 µM
[5] = second compound 0.0316 µM, first compound 3.16 µM
[6] = second compound 0.0316 µM, first compound 10 µM
[7] = second compound 0.1 µM, first compound 0.0316 µM
[8] = second compound 0.1 µM, first compound 0.1 µM
[9] = second compound 0.1 µM, first compound 0.316 µM
[10] = second compound 0.1 µM, first compound 1 µM
[11] = second compound 0.1 µM, first compound 3.16 µM
[12] = second compound 0.1 µM, first compound 10 µM
[13] = second compound 0.316 µM, first compound 0.0316 µM
[14] = second compound 0.316 µM, first compound 0.1 µM
[15] = second compound 0.316 µM, first compound 0.316 µM
[16] = second compound 0.316 µM, first compound 1 µM
[17] = second compound 0.316 µM, first compound 3.16 µM
[18] = second compound 0.316 µM, first compound 10 µM
[19] = second compound 1 µM, first compound 0.0316 µM
[20] = second compound 1 µM, first compound 0.1 µM
[21] = second compound 1 µM, first compound 0.316 µM
[22] = second compound 1 µM, first compound 1 µM
[23] = second compound 1 µM, first compound 3.16 µM
[24] = second compound 1 µM, first compound 10 µM
[25] = second compound 3.16 µM, first compound 0.0316 µM
[26] = second compound 3.16 µM, first compound 0.1 µM
[27] = second compound 3.16 µM, first compound 0.316 µM
[28] = second compound 3.16 µM, first compound 1 µM
[29] = second compound 3.16 µM, first compound 3.16 µM
[30] = second compound 3.16 µM, first compound 10 µM
[31] = second compound 10 µM, first compound 0.0316 µM
[32] = second compound 10 µM, first compound 0.1 µM
[33] = second compound 10 µM, first compound 0.316 µM
[34] = second compound 10 µM, first compound 1 µM
[35] = second compound 10 µM, first compound 3.16 µM
[36] = second compound 10 µM, first compound 10 µM
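Note: spheroids exposed to the compounds for one week.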
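Throughout, for viability, T/C: percent of tumor spheroid viability relative to DMSO vehicle control wells.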

CC(C)n1c(=O)n(C)c2cnc3cc(F)c(-c4ccc(OCCCN5CCCCC5)nc4)cc3c21 + CN(C)c1ccc(Nc2c3ccc(NC(=O)CCN4CCCC4)cc3nc3cc(NC(=O)CCN4CCCC4)ccc23)cc1 showed an IC50 (second compound 0.0316 µM) of over 10 µM, an IC50 (second compound 0.1 µM) of over 10 µM and an IC50 (second compound 0.316 µM) of over 10 µM. The IC50 (second compound 1 µM) was over 10 µM, the IC50 (second compound 3.16 µM) was 0.654 µM and the IC50 (second compound 10 µM) was under 0.0316 µM. The viability, T/C [1] was 89.9%, the viability, T/C [2] was 81.4% and the viability, T/C [3] was 97.1%. For the same compound, the viability, T/C [4] was 84.5%, the viability, T/C [5] was 118% and the viability, T/C [6] was 98.2%. The viability, T/C [7] was 81.3%, the viability, T/C [8] was 87.5% and the viability, T/C [9] was 82.2%. It also gave a viability, T/C [10] of 95.7%, a viability, T/C [11] of 108% and a viability, T/C [12] of 72.4%. For the same compound, the viability, T/C [13] was 83.4%, the viability, T/C [14] was 69.8% and the viability, T/C [15] was 84.3%. The viability, T/C [16] was 92.9%, the viability, T/C [17] was 118% and the viability, T/C [18] was 78.6%. For the same compound, the viability, T/C [19] was 84%, the viability, T/C [20] was 86.3% and the viability, T/C [21] was 94.5%. The viability, T/C [22] was 87.9%, the viability, T/C [23] was 94.8% and the viability, T/C [24] was 54.3%. It also gave a viability, T/C [25] of 75.3%, a viability, T/C [26] of 70.4% and a viability, T/C [27] of 52%. For the same compound, the viability, T/C [28] was 47.5%, the viability, T/C [29] was 35.4% and the viability, T/C [30] was 18.8%. The viability, T/C [31] was 16.4%, the viability, T/C [32] was 14.6% and the viability, T/C [33] was 13.3%. For the same compound, the viability, T/C [34] was 10.1%, the viability, T/C [35] was 9.73% and the viability, T/C [36] was 2.68%.
With CC1COCCN1c1cc(-c2ccnn2C)c2ccnc(-c3ccn[nH]3)c2n1 (centres undefined) + CN(C)c1ccc(Nc2c3ccc(NC(=O)CCN4CCCC4)cc3nc3cc(NC(=O)CCN4CCCC4)ccc23)cc1 the IC50 (second compound 0.0316 µM) was 0.0372 µM, the IC50 (second compound 0.1 µM) was 0.0322 µM and the IC50 (second compound 0.316 µM) was under 0.0316 µM. The IC50 (second compound 1 µM) was under 0.0316 µM, the IC50 (second compound 3.16 µM) was under 0.0316 µM and the IC50 (second compound 10 µM) was under 0.0316 µM. The viability, T/C [1] was 57.1%, the viability, T/C [2] was 6.61% and the viability, T/C [3] was 3.14%. The viability, T/C [4] was 3%, the viability, T/C [5] was 4.69% and the viability, T/C [6] was 8.34%. It also gave a viability, T/C [7] of 50.8%, a viability, T/C [8] of 7.66% and a viability, T/C [9] of 2.82%. The viability, T/C [10] was 3.38%, the viability, T/C [11] was 5.04% and the viability, T/C [12] was 7.27%. It also gave a viability, T/C [13] of 46.7%, a viability, T/C [14] of 6.13% and a viability, T/C [15] of 3.67%. The viability, T/C [16] was 3.77%, the viability, T/C [17] was 5.39% and the viability, T/C [18] was 7.84%. For the same compound, the viability, T/C [19] was 44%, the viability, T/C [20] was 7.67% and the viability, T/C [21] was 3.43%. It also gave a viability, T/C [22] of 3.61%, a viability, T/C [23] of 4.71% and a viability, T/C [24] of 8.81%. For the same compound, the viability, T/C [25] was 27.2%, the viability, T/C [26] was 6.07% and the viability, T/C [27] was 3.25%. For the same compound, the viability, T/C [28] was 3.51%, the viability, T/C [29] was 5.21% and the viability, T/C [30] was 7.01%. The viability, T/C [31] was 12.7%, the viability, T/C [32] was 7.23% and the viability, T/C [33] was 4.41%. It also gave a viability, T/C [34] of 3.59%, a viability, T/C [35] of 4.61% and a viability, T/C [36] of 2.61%.
